# Laboratory results from a melting point compilation (Tetko et al.; mined from patent text by program, amines drawn as free bases though some values may be those of a salt).
row,SMILES,melting point
1,O=c1c(-c2cccc(C(F)(F)F)c2)coc2cc(O)c(O)cc12,274 to 275 °C
2,COc1cc2c(cc1Br)CC/C2=C\C#N,180 to 182 °C
3,N#CC(OC1CCCCO1)c1ccc(Cl)c(Cl)c1 (configuration not stated),61 °C
4,Nc1ccc(C(=O)OCCCCl)c(N)c1,97 °C
5,CCCCc1ccc2nnc(C(=O)O)cc2c1,131 to 133 °C
6,CCOC(=O)CN(CP(=O)(ONN(C)C)ONN(C)C)C(=O)C(F)(F)F,84.5 to 87.5 °C
7,O=C(N[C@H]1CC[C@H](CCN2CCN(c3nccc4c3CCO4)CC2)CC1)c1ccc(Cl)cc1,226 °C
8,CCCNC(=O)N(C)C1CCNCC1,84 to 86 °C
9,OCC1CNc2ncccc2O1 (configuration not stated),123 to 124 °C
10,Fc1ccc(Nc2ccnc(Cl)n2)cc1,172 to 174 °C
11,O=Cc1csc(N2CCOCC2)n1,107 to 108 °C
12,CNC(=O)c1cccc(Br)c1,126 °C
13,NC(=O)CCCSCc1nccc(NC(N)=NCC(F)(F)F)n1,126 to 128 °C
14,OC(CCCn1ccnc1)c1ccccc1 (configuration not stated),205 to 207 °C
15,CCCCOc1ccc(C#CC2(O)CN3CCC2CC3)cn1 (configuration not stated),149 to 151 °C
16,CNc1nc(C)c(-c2nc3ccccc3c(=O)n2-c2ccc(Cl)cc2)s1,195 to 197 °C
17,COc1ccc(C(CN)C2CCCCC2O)cc1 (mixture of isomers),79 to 81 °C
18,COCCOC(=O)NC(=O)CCCCCN=C=O,77 °C
19,Cc1nc2c(O)cccn2c1C=O,251 to 252 °C
20,O=C1C=CC(=O)C2=C1OCCO2,156 °C
21,CC1CC(c2cccc(Cl)c2)=NNC1=O (configuration not stated),150 to 151 °C

row,SMILES,melting point
1,Cc1nn(C)c2c(=O)[nH]cnc12,303 to 305 °C
2,O=C(O)CCC(=O)c1ccc(NC(=O)CCCl)cc1,181 to 182 °C
3,O=C(O)[C@H](Cc1ccc(F)cc1)[C@@H](O)c1ccc(C(F)(F)F)cc1 (racemic),120 to 121 °C
4,N#Cc1nn(-c2c(Cl)cc(C(F)(F)F)cc2Cl)c(Cl)c1I,116 °C
5,CN1C(=O)N2CCSC2(C)C1=O (configuration not stated),67 to 68 °C
6,CS(=O)(=O)N1CCC(N)CC1,65.3 to 65.7 °C
7,O=C1CC[C@H](N2C(=O)c3cccc(CNC(=O)C4CC4)c3C2=O)C(=O)N1,219 to 221 °C
8,Clc1sc(Cl)c2c1CNC2,> 270 °C
9,CN(C)C1CCN(c2nc3c(cc2F)c(=O)c(C(=O)O)cn3CCF)C1 (configuration not stated),247 to 249 °C
10,Cc1ccc(S(=O)(=O)Cc2c(-c3ccc(Cl)cc3Cl)nn(C)c2O)cc1,209 °C
11,CCCCCCCCCCCCCCCC(Br)CC(=O)O (configuration not stated),47 to 51 °C
12,O=C1C(=O)c2ccccc2C2=C1SCC1(CCOCC1)O2,195 to 197 °C
13,CCS(=O)(=O)c1ccc2c(c1)nc(CC(C)(C)C)n2CC1(O)CCCC1,172 °C
14,CC(C)C#Cc1c(C#N)nn(-c2c(Cl)cc(C(F)(F)F)cc2Cl)c1N,210 to 212 °C
15,Cc1cc(-c2ccccc2)n2nc(SC(F)(F)F)nc2n1,91 to 93 °C
16,O=S(=O)(c1ccc(F)cc1)N1CCCC1c1cccs1 (racemic),97 °C
17,CON=C(C#N)C(=O)Nc1ccc(OC(F)C(F)(F)F)cc1 (configuration not stated),109 to 110 °C
18,Cc1ccc(OC2=C(Oc3ccc(C)cc3)C(F)(F)C(F)(F)C2(F)F)cc1,46 to 48 °C
19,O=S1(=O)N=C(NCc2ccco2)Nc2cc(Cl)sc21,224 to 225 °C
20,O=C(Nc1ccc(Cl)c(Cl)c1)c1cc(C(F)(F)F)cc([N+](=O)[O-])c1Cl,202 °C
21,Brc1csc(N2CCCCC2)n1,66 °C

# Results, then the molecule that gave them:
row,melting point,SMILES
1,68 to 71 °C,CN1C(=O)N(CCCC(NS(=O)(=O)c2ccc(-c3ccc(Cl)cc3)cc2)C(=O)O)C(=O)C1(C)C (configuration not stated)
2,144 to 145 °C,CC(C)c1cc(C(C)C)cc(N(Cc2cccc(NC(=N)c3cccs3)c2)C(=O)CCc2cc(C(C)C)c(O)c(C(C)C)c2)c1
3,196 to 197 °C,Cc1cn(C)c2cc(NC(=O)c3ccc(C(C)(C)O)cc3)ncc12
4,174 to 177 °C,Cc1ncc(CSC(=O)c2ccccc2)c(CO)c1O
5,141 °C,COc1cc(/C=C(\C#N)c2c[nH]c3ccc(OC)cc23)cc(OC)c1
6,211 °C,CC(C)NC(=NC(=O)OCc1ccccc1)N=C1NC(=O)C(=O)N1c1ccc(Cl)c(Cl)c1
7,117 to 118 °C,CCN(CC)C(=O)c1cc(S(=O)(=O)Cc2ccccc2)c(N2CCC(c3ccccc3)CC2)cc1N(CC)CCN(C)C
8,138 °C,Cc1nc(-c2ccccc2)[nH]c1-c1cnc(-c2ccccc2)nc1
9,280 °C,CCOCC(=O)Nc1nc[nH]c1-c1n[nH]c(-c2ccc(-c3ccccc3)cc2)n1
10,75 to 80 °C,O=C(Nc1ccccn1)[C@H](Cc1ccccc1)C[C@@H](Cc1ccccc1)C(=O)N[C@@H](CSCc1ccccc1)C(=O)O
11,208 to 209 °C,CC(C)(C(=O)NCCC#N)c1ccc(C(=O)Nc2cn3cc(Cl)ccc3n2)cc1
12,143 to 144 °C,O=C(OCC1OC(n2ccc(=O)[nH]c2=O)C(OC(=O)c2ccccc2)C1OC(=O)c1ccccc1)c1ccccc1 (configuration not stated)
13,128 to 133 °C,CN(C)CC1CCc2cc(OCc3ccc(NC(=O)c4ccccc4)cc3)ccc2C1 (configuration not stated)
14,155 °C,C[C@@H](Nc1ncnc2cc(OCC3CC3)c([N+](=O)[O-])cc12)c1ccccc1
15,83 to 84 °C,CCOC(=O)N(Cc1ccc(F)cc1)c1ccc(C(=O)OC)cc1
16,224 to 226 °C,COc1ccc(CS(=O)(=O)c2cc3cc(Cl)ccc3oc2=O)cc1
17,133 to 136 °C,COc1ccc(NC(=O)C2(C(=O)O)CC2)cc1
18,111 to 115 °C,Cc1noc(NS(=O)(=O)c2ccccc2-c2ccc(-c3ncco3)cc2O)c1C
19,163 to 164 °C,CC(C)(C)c1cc(CCc2ccccc2NC(=O)NCc2cccnc2)cc(C(C)(C)C)c1O
20,104 to 105 °C,COc1cc(OC)c2c(c1)OC(C)(C)CC2=O

row,melting point,SMILES
1,224 to 225 °C,COc1ccc(C(=O)Nc2c(Cl)cncc2Cl)c2cc(C(=O)N3CCN(C)CC3)oc12
2,153 to 154 °C,Cc1c(C)c2c(c(C)c1NC(=O)CC(C)(C)C)C(c1ccc(CC(C)C)cc1)CO2 (configuration not stated)
3,227 to 230 °C,CCc1c(C)[nH]c2cc(OCCN(C)C)c(Cl)cc2c1=O
4,77 to 80 °C,Cc1cc(CC(O)CO)c(OCc2ccccc2)c2c1CCC2 (configuration not stated)
5,201 °C,O=C(Nc1ccc(C2CC(F)(F)C2(F)Cl)cc1)Nc1nonc1-c1ccccc1 (configuration not stated)
6,127 to 130 °C,NC(=O)c1cn(C(CO)CCc2ccccc2)cn1 (configuration not stated)
7,118 to 120 °C,O=C(CON1C(=O)c2ccccc2C1=O)NOCc1ccccc1
8,126 °C,CC(=O)SCC(Cc1ccccc1)C(=O)NN1CCCCCC1 (configuration not stated)
9,100 to 102 °C,CCCCO/N=C(\C(=O)On1nnc2ccccc21)c1csc(NC(c2ccccc2)(c2ccccc2)c2ccccc2)n1
10,132 to 134 °C,N#Cc1cc(NC(=O)c2ccccc2F)ccc1-n1nc(C(F)(F)F)cc1C(F)(F)F
11,75 to 77 °C,COc1ccc(-c2cccc(-c3nc(C(C)C)[nH]c3-c3cccc(C)n3)c2)cc1
12,153 to 155 °C,COc1cc(C=C2COCC3=C2N=C2SCCN2C3c2cc(OC)c(OC)c(OC)c2)cc(OC)c1OC (configuration not stated)
13,146 to 148 °C,COc1cccc(P(=O)(c2ccc(C)cc2)c2ccc(C)cc2)c1I
14,252 °C,COc1cc(C2=C(c3cc4ccccc4[nH]3)C(=O)NC2=O)cc(OC)c1OC
15,218 to 219 °C,Cc1cc(-c2nc3c(C)cc(Cl)nn3c2-c2ccnc(N)c2)ccc1F
16,115 °C,CCOCCOc1ccc(-c2nc(C(=O)Nc3nccs3)c(-c3ccc(Cl)cc3)[nH]2)cc1
17,145 to 148 °C,O=c1cc(Oc2c(Cl)cccc2Cl)c2cc(OC(F)F)ccc2o1
18,164 to 166 °C,CCC1(CC)c2cc(CBr)c(CBr)cc2C(CC)(CC)N1Cc1ccccc1
19,187 to 188 °C,COc1ccc(-c2ccc3c(C(=O)N(C)C)c(OC)ccc3c2)cc1
20,129 to 131 °C,COCc1cccc(OCCc2cnc(SC)[nH]c2=O)c1

row,melting point,SMILES
1,77 to 79 °C,CCCc1c(OCCCOc2ccc3c(c2CCC)OC(C)(CCC(N)=O)CC3=O)ccc(C(C)=O)c1O (configuration not stated)
2,102 to 103 °C,CCOC(=O)c1cc(C)n(-c2cccnc2)c1-c1ccccc1
3,124 to 126 °C,CC(=O)Nc1cc(C(C)=O)ccc1OCCCCl
4,244 to 246 °C,O=C(O)C1CN(C(=O)N(c2ccccc2)c2ccccc2)CCN1C(=O)N(c1ccccc1)c1ccccc1 (configuration not stated)
5,190 to 206 °C,CCc1nc2c(N)nc3ccccc3c2n1CC#Cc1ccc([N+](=O)[O-])cc1
6,73.7 °C,CCCc1cc(C)nc(-c2cccc(Oc3ccccc3Cl)n2)n1
7,153 to 155 °C,CCC(C(=O)O)N(C(=O)c1cnn(-c2ccc(F)cc2)c1)c1ccc(OCC(C)(C)C)c(C#N)c1 (configuration not stated)
8,134 °C,COC(=O)C1CN(C(=O)c2cc(OC)c(OC)c(OC)c2)CCN1C(=O)C1=Cc2cc(OC)c(OC)cc2CCC1 (configuration not stated)
9,192 to 194 °C,COc1ccc(-c2ccc(C(=O)Nc3ccc4nc(CN5CCCCC5)ccc4c3)cc2)cc1
10,183 to 185 °C,CCN(CC)CC1CCCCN1CCNC(=O)N1c2cc(C)ccc2C(=O)Nc2cccnc21 (configuration not stated)
11,77 to 80 °C,CCCCCCN(Cc1ccc(N(C)C)cc1)c1c(N[C@@H](Cc2ccccc2)C(=O)O)c(=O)c1=O
12,55 to 57 °C,O=C(NCCSCc1cccc(Cl)c1)c1c(Br)cccc1Br
13,163 to 164 °C,CCCCCCCCc1cc2cc(O)ccc2c(Oc2ccc(/C=C/C(=O)O)cc2)c1-c1ccccc1
14,141 to 143 °C,COC(Cc1ccc(OCCc2nc(C(C)(C)C)oc2C)c2ccccc12)C(=O)O (configuration not stated)
15,101 to 103 °C,Clc1cccc(N2CCN(CCCCOc3ccc4cn[nH]c4c3)CC2)c1Cl
16,91 °C,Cc1cccc2c1Oc1ccccc1N2
17,145 to 146 °C,O=S1(=O)c2ccccc2Oc2ccccc21
18,55 to 65 °C,COc1cc2cc(C(=O)Nc3cc(OCc4ccccc4)c4ccccc4c3CCOC(C)=O)[nH]c2c(OC)c1OC
19,47 °C,CCCCCCCCCCCCc1ccc(N=C(C)c2ccccc2)cc1
20,93 to 94 °C,COCCOC(=O)N1c2cc(Cl)ccc2NC(=O)[C@@H]1C
